We go through 55 molecules from US20260184708A1, “PYRIDAZINONES AND METHODS OF USE THEREOF” (GFB (ABC), LLC, priority 2017, published 2026).

Structures are written as SMILES.

The first assay has as its target T1, TRPC4 (Homo sapiens, UniProt Q9UBN4).
T1 construct: expressed in transfected cells; host or cells: HEK-TREx (HekTrex-293), cell line ICLN-1694, tetracycline-induced
T1 sequence (Q9UBN4 1-982 isoform Q9UBN4-5): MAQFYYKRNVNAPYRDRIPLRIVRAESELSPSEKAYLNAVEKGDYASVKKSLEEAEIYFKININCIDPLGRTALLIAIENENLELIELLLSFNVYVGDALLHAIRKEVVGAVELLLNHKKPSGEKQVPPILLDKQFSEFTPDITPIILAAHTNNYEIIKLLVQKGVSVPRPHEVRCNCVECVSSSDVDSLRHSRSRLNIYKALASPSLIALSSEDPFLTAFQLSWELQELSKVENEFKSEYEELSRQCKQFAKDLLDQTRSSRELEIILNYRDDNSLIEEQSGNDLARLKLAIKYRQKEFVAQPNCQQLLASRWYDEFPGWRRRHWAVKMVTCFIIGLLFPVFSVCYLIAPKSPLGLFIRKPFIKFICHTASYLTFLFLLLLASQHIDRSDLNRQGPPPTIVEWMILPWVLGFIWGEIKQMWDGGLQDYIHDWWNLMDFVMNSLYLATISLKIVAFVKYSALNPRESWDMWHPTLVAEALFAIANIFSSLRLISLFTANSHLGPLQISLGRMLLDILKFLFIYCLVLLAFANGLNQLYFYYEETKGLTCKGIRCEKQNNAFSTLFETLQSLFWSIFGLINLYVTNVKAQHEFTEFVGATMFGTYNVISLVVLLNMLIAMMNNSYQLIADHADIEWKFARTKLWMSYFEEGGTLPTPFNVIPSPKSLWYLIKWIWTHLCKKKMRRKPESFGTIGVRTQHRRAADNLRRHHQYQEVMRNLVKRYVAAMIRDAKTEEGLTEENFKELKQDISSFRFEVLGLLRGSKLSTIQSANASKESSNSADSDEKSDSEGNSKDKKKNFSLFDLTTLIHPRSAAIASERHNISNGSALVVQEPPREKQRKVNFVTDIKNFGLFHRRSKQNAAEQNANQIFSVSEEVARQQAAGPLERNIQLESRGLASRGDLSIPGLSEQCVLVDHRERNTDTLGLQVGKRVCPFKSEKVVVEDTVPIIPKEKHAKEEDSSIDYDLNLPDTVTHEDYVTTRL
Kind of assay: TRPC4 FLIPR Assay (HEK-TREx hTRPC4, Englerin A stimulation).
Details: not given
The class given is cell-based. As for the experimental part:
FLIPR Assay Buffer (Earls Balanced Salt Solution (EBSS)) was prepared as follows:
10-point dose response curves were generated using the Echo-550 acoustic dispenser. Compound source plates were made by serially diluting compound stocks to create 10 mM, 1 mM, and 0.1 mM solutions in DMSO into Echo certified LDV plates. The Echo then serially spotted 100% DMSO stock solutions into source dose response plates to generate a 4-fold dilution scheme. 100% DMSO was added to the spotted dose response plates to bring the final volume to 5 μl. […] of the dose response stock plate was then spotted into pre-incubation and stimulation assay plates. […] of pre-incubation buffer and 100 μl of stimulation buffer was then added to the plates resulting in a final assay test concentration range of 30 μM to 0.0001 μM with a final DMSO concentration of 0.3%.
Experimental Methods: Cells expressing TRPC4 were plated onto 384 well, black pdl-coated microplates and maintained in TRPC4 growth media the day prior to use for experiments. TRPC4 expression was induced by the application of 1 μg/ml tetracycline at the time of plating. […] Cells were incubated at room temperature, protected from light, for 60-90 minutes. After the incubation period, the dye was removed and replaced with 10 μl of EBSS. Cell, pre-incubation and stimulation plates were loaded onto the FLIPR-II and the assay was initiated. The FLIPR measured a 10 second baseline and then added 10 μl of 2× compounds (or controls). Changes in fluorescence were monitored for an additional 5 minutes. After a 5 minute pre-incubation, 20 μl of 2× Englerin A (with 1× compound or controls) was added to the cell plate. The final Engerlin A stimulation concentration in the assay is 100 nM. After the Englerin A addition, changes in fluorescence were monitored for an additional 5 minutes.
Test Agent Effect: Test agent modulation of TRPC4 calcium response was determined as follows. After the Englerin A, fluorescence was monitored for a 5 minute period. The maximum relative fluorescence response (minus the control response of […] of the control inhibitor) was captured and exported from the FLIPR. Test agent effect was calculated as % inhibition using the following formula: % inhibition=((RFU TEST AGENT−Plate Average RFU REF INHIB)/(Plate Average RFU CONTROL−Plate Average RFU REF INHIB))×100
In turn, `O=C1CN(c2cn[nH]c(=O)c2Cl)CCN1Cc1cc(F)ccc1C(F)(F)F` came in with an IC50 of 0.01 to 1000 nM.

Still in this assay, the particulars now being: Table 8; HEK-TREx hTRPC4; read-out: TRPC4 FLIPR IC50.
Regarding `C[C@H](c1ccccc1C(F)(F)F)n1nnc2c1CCN(c1cn[nH]c(=O)c1Cl)[C@H]2C` [drawing 970], the IC50 was in the range of 0.01 to 1000 nM.
Turning to `CCc1ncccc1N(C)c1ncc2c(n1)CN(c1cn[nH]c(=O)c1Cl)C2` [drawing 1006], the IC50 was in the range of 0.01 to 1000 nM.
Still for that read-out and setting: to `CCc1ncccc1CN1CCN(c2cn[nH]c(=O)c2C#N)CC1` belongs 5000 to 10000 nM; to `NC(=O)c1nc2c(n1Cc1ccccc1C(F)(F)F)CCN(c1cn[nH]c(=O)c1Cl)C2` [drawing 997], 0.01 to 1000 nM; to `COC[C@H](c1ccccc1C(F)(F)F)n1cnc2c1CCN(c1cn[nH]c(=O)c1Cl)C2` [drawing 988], 0.01 to 1000 nM.
The same measure, in the same setting: the same measure for `CCS(=O)(=O)c1nc2c(n1Cc1ccccc1C(F)(F)F)CCN(c1cn[nH]c(=O)c1Cl)C2` [drawing 971]: 0.01 to 1000 nM; for `O=C1CN(c2cn[nH]c(=O)c2Cl)CCN1Cc1ccc(F)cc1F` [drawing 1014]: 1000 to 5000 nM.
Consider `C[C@@H]1Cc2c(c(C(N)=O)nn2Cc2ccccc2C(F)(F)F)CN1c1cn[nH]c(=O)c1Cl` [drawing 986], for which the IC50 is 0.01 to 1000 nM.
Consider `O=c1[nH]ncc(N2CCc3c(ncn3-c3ccccc3C(F)(F)F)C2)c1Cl` [drawing 954], for which the IC50 was in the range of 1000 to 5000 nM.
On the same count and under the same terms, to `N#Cc1c(N2CCc3c(nnn3Cc3ccccc3C(F)(F)F)C2)cn[nH]c1=O` [drawing 959] belongs 1000 to 5000 nM; to `C[C@@H](c1ccccc1C(F)F)n1nnc2c1CCN(c1cn[nH]c(=O)c1Cl)C2` [drawing 980], 0.01 to 1000 nM.
As to `CCc1ccccc1Cn1cnc2c1CCN(c1cn[nH]c(=O)c1Cl)C2`, the IC50 lay within 0.01 to 1000 nM.
Same read-out and setting: the same measure for `CCc1ncccc1CN1CCN(c2cn[nH]c(=O)c2Cl)C(C)C1` (stereo not shown): 5000 to 10000 nM; for `C[C@H](c1ccc(F)cc1C(F)(F)F)n1nnc2c1CCN(c1cn[nH]c(=O)c1Cl)[C@H]2C` [drawing 976]: 0.01 to 1000 nM; for `O=C1CN(c2cn[nH]c(=O)c2Cl)CCN1Cc1ccc(F)cc1Cl` [drawing 1013]: 0.01 to 1000 nM.
The same measure, in the same setting: the same measure for `CNC(=O)c1nn(Cc2ccc(F)cc2C(F)F)c2c1CN(c1cn[nH]c(=O)c1Cl)CC2` [drawing 985]: 0.01 to 1000 nM; for `C[C@H](c1ccccc1C(F)F)n1nnc2c1CCN(c1cn[nH]c(=O)c1Cl)C2` [drawing 977]: 0.01 to 1000 nM; for `O=c1[nH]ncc(N2CCc3c(ncn3Cc3ccccc3Cl)C2)c1Cl` [drawing 1000]: 0.01 to 1000 nM.
Still for that read-out and setting: to `C[C@@H](c1ccccc1Cl)n1nnc2c1CCN(c1cn[nH]c(=O)c1Cl)C2` [drawing 1001] belongs 0.01 to 1000 nM.
Regarding `COc1cc(F)ccc1CN1CCN(c2cn[nH]c(=O)c2Cl)CC1=O` [drawing 1021], the IC50 fell in the range of 1000 to 5000 nM.
On to `C[C@@H](c1ccccc1C(F)(F)F)n1nnc2c1CCN(c1cn[nH]c(=O)c1C#N)C2`, for which the IC50 lay in the range of 0.01 to 1000 nM.
Consider `O=C1CN(c2cn[nH]c(=O)c2Cl)CCN1Cc1ccccc1Cl`, for which the IC50 is 0.01 to 1000 nM.
As for `Cc1ncccc1CN1CCN(c2cn[nH]c(=O)c2Cl)CC1` [drawing 1017], the IC50 fell in the range of 1000 to 5000 nM.
For `O=c1[nH]ncc(N2CCc3c(nnn3Cc3ccc(F)cc3CC(F)(F)F)C2)c1Cl` [drawing 994], the IC50 is 0.01 to 1000 nM.
In the case of `CCc1ncccc1CN1CCN(c2cn[nH]c(=O)c2Cl)CC1`, the IC50 fell in the range of 0.01 to 1000 nM.
On the same count and under the same terms, the same measure for `C[C@H](c1ccccc1Cl)n1nnc2c1CCN(c1cn[nH]c(=O)c1Cl)C2` [drawing 995]: 0.01 to 1000 nM; for `O=C1CN(c2cn[nH]c(=O)c2Cl)CCN1Cc1ccccc1OC(F)(F)F` [drawing 1015]: 0.01 to 1000 nM; for `O=c1[nH]ncc(N2CCc3c(ncn3Cc3ccc(F)cc3C(F)F)C2)c1Cl` [drawing 960]: 0.01 to 1000 nM.
As for `O=C1CN(c2cn[nH]c(=O)c2Cl)CCN1Cc1ccccc1C(F)F`, the IC50 was 0.01 to 1000 nM.
For `CC(c1ccc(F)cc1C(F)F)n1nc(C(N)=O)c2c1CCN(c1cn[nH]c(=O)c1Cl)C2` (stereo not shown) [drawing 983], the IC50 was 0.01 to 1000 nM.
On the same count and under the same terms, to `C[C@H](c1ccccc1)n1cnc2c1CCN(c1cn[nH]c(=O)c1Cl)C2` [drawing 940] belongs 0.01 to 1000 nM; to `O=c1[nH]ncc(N2CCc3c(nnn3Cc3ccccc3C(F)(F)F)C2)c1Cl` [drawing 948], 0.01 to 1000 nM; to `N#Cc1c(N2CCc3c(ncn3Cc3ccccc3C(F)(F)F)C2)cn[nH]c1=O` [drawing 956], 1000 to 5000 nM.
Turning to `O=C1CN(c2cn[nH]c(=O)c2Br)CCN1Cc1cccc2ccccc12` [drawing 1009], the IC50 was in the range of 0.01 to 1000 nM.
Same read-out and setting: the same measure for `CN(c1ncc2c(n1)CN(c1cn[nH]c(=O)c1Cl)C2)c1ccc(F)cc1Cl` [drawing 1003]: 0.01 to 1000 nM; for `O=c1[nH]ncc(N2CCc3c(ncn3Cc3ccccc3C(F)(F)F)C2)c1Cl` [drawing 944]: 0.01 to 1000 nM; for `C[C@@H](c1ccccc1)n1nnc2c1CCN(c1cn[nH]c(=O)c1Cl)C2`: 1000 to 5000 nM.
Consider `O=c1[nH]ncc(N2CCc3c(c(=O)[nH]n3Cc3ccccc3C(F)(F)F)C2)c1Cl` [drawing 972], for which the IC50 lay within 0.01 to 1000 nM.
Regarding `O=c1[nH]ncc(N2CCc3c(cnn3Cc3ccc(F)cc3C(F)(F)F)C2)c1Cl` [drawing 951], the IC50 is 0.01 to 1000 nM.
On the same count and under the same terms, to `C[C@H](c1ccccc1C(F)(F)F)n1nc(C(N)=O)c2c1CCN(c1cn[nH]c(=O)c1Cl)C2` [drawing 990] belongs 0.01 to 1000 nM; to `O=c1[nH]ncc(N2CCc3c(ncn3Cc3ccccc3OC(F)(F)F)C2)c1Cl`, 0.01 to 1000 nM; to `C[C@H](c1ccc(F)cc1C(F)(F)F)N1C[C@@H](C)N(c2cn[nH]c(=O)c2Cl)CC1=O` [drawing 992], 0.01 to 1000 nM.
Same read-out and setting: the same measure for `CCN(c1ncc2c(n1)CN(c1cn[nH]c(=O)c1Cl)C2)c1ccccc1Cl` [drawing 1004]: 0.01 to 1000 nM; for `Cc1ccccc1[C@H](C)N1CCN(c2cn[nH]c(=O)c2Cl)CC1=O` [drawing 1020]: 10000 to 500000 nM; for `C[C@@H](c1ccccc1C(F)(F)F)n1nnc2c1CCN(c1cn[nH]c(=O)c1Cl)C2` [drawing 962]: 0.01 to 1000 nM.
On the same count and under the same terms, to `O=c1[nH]ncc(N2CCc3c(ncn3Cc3ccccc3C(F)(F)F)C2)c1Br` [drawing 950] belongs 0.01 to 1000 nM.
With `O=c1[nH]ncc(N2CCc3c(ncn3Cc3ccccc3C(F)F)C2)c1Cl` [drawing 952], the IC50 was 0.01 to 1000 nM.
Same read-out and setting: to `CCc1cc(F)ccc1Cn1cnc2c1CCN(c1cn[nH]c(=O)c1Cl)C2` [drawing 958] belongs 0.01 to 1000 nM; to `CCc1nccc(C)c1CN1CCN(c2cn[nH]c(=O)c2Cl)CC1`, 1000 to 5000 nM; to `Cc1cc(Cl)ccc1CN1CCN(c2cn[nH]c(=O)c2Cl)CC1=O` [drawing 1018], 1000 to 5000 nM.
Consider `O=c1[nH]ncc(N2CCN(Cc3ccccc3Cl)CC2)c1Cl` [drawing 1010], for which the IC50 lay in the range of 1000 to 5000 nM.
With `Cc1ccccc1Cn1cnc2c1CCN(c1cn[nH]c(=O)c1Cl)C2` [drawing 938], the IC50 lay within 0.01 to 1000 nM.
On the same count and under the same terms, the same measure for `COCc1ncccc1Cn1cnc2c1CCN(c1cn[nH]c(=O)c1Cl)C2` [drawing 966]: 1000 to 5000 nM; for `CS(=O)(=O)c1nc2c(n1Cc1ccccc1C(F)(F)F)CCN(c1cn[nH]c(=O)c1Cl)C2` [drawing 1002]: 0.01 to 1000 nM.

What is called IC50 is the concentration that inhibits the measured activity by half.
